# Measurements: patent US8309140B2, “Effect of porcine sheath proteins on the regeneration activity of periodontal ligament” (priority 2005, dated 2012)
# Entries after “also recorded” stand apart in the source; their conditions may differ.
# B1: 17 kDa sheath protein: Porcine 17 kDa sheath protein, N-terminal cleavage product of sheathlin containing 170 amino acids (protein, listed as Sus scrofa)
# chain: VPAFPRQPGTPGVASLSLETMRQLGSLQGLNMLSQYSRFGFGKSFNSLWMHGLLPPHSSFQWMRPREHETQQYEYSLPVHPPPLPSQPSLQPQQPGQKPFLQPTVVTSIQNPVQKGVPQPPIYQGHPPLQQVEGPMVQQQVAPSEKPPEAELPGLDFADPQDPSMFPIAR
# modifications: porcine sheath protein
# notes: Porcine 17 kDa sheath protein, N-terminal cleavage product of sheathlin containing 170 amino acids
# B2: 15 kDa sheath protein: N-terminal cleavage product of sheathlin containing 130 amino acids, lacks C-terminal 40 amino acids of 17 kDa sheath protein (protein)
# chain: VPAFPRQPGTPGVASLSLETMRQLGSLQGLNMLSQYSRFGFGKSFNSLWMHGLLPPHSSFQWMRPREHETQQYEYSLPVHPPPLPSQPSLQPQQPGQKPFLQPTVVTSIQNPVQKGVPQPPIYQGHPPLQ
# B3: 25 kDa amelogenin: most abundant uncleaved porcine amelogenin polypeptide (protein, UniProt P45561 17-189, looked up)
# Amelogenin: MPLPPHPGHPGYINFSYEVLTPLKWYQNMIRHPYTSYGYEPMGGWLHHQIIPVVSQQTPQSHALQPHHHIPMVPAQQPGIPQQPMMPLPGQHSMTPTQHHQPNLPLPAQQPFQPQPVQPQPHQPLQPQSPMHPIQPLLPQPPLPPMFSMQSLLPDLPLEAWPATDKTKREEVD
# Tests used:
# [1] = test system: human periodontal ligament (HPDL) cells; experiment: ALP inducing activity of HPDL cells on cell culture system; format: cell-based; conditions: for ALP inducing activity of HPDL cells (amelogenins and peptides based on 6 kDa amelogenin): purified porcine amelogenins and synthetic peptides; for ALP activity of HPDL cells (porcine sheath proteins and synthetic peptides): 50 μg/ml protein or peptide, TGF-β1 50 ng/ml, BMP-2 500 ng/ml, 10 nM 1α-25dihydroxy-Vitamin D3
# Text: Human periodontal ligament (HPDL) cells were obtained according to the method of Somerman et al., (1988) from healthy premolars which were extracted from the patients for orthodontic reasons. The cells were precultured for 4-6 passages with a-MEM medium to establish the primary cell line. The cells were maintained in the alpha modification of Eagle's medium (α-MEM; Life Technologies, Grand Island, N.Y., USA) containing 10% fetal bovine serum (FBS; Asahi Technoglass, Chiba, Japan) and 1% antibiotics (100 U/ml of Penicillin-G and 100 μg/ml of Streptomycin sulfate; Gibco BRL, Grand Island, N.Y., USA) at 37° C. in a humidified 5% CO2 atmosphere. The ST2 cells (Riken Cell Bank, Tsukuba, Japan), an osteoblast-like mouse bone marrow stromal cell line, were cultured under the same conditions.
# HPDL cells were distributed in 96-well plates at a density of approximately 5×10^5 cells per a well and incubated for 24 h. The growth medium was then changed to contain 10 nM of 1α-25dihydroxy-Vitamin D3 (CALBIOCHEM, La Jolla, Calif.) and 50 μg/ml (final concentration) of fractionated enamel protein samples or synthesized peptides dissolved in ultrapure water. After 96 additional hours of incubation, the cells were washed once with PBS, and ALP activity was determined after a 10 min incubation at 37° C. in 10 mM p-nitrophenylphosphate (substrate) in 100 mM 2-amino-2-methyl-1,3-propanediol-HCl buffer (pH 10.0) containing 5 mM MgCl2. After adding 0.2 M NaOH, which stopped the reaction, the absorbance at 405 nm was read on a plate reader.
# HPDL cells of approximately 5×10^5 cells per well were distributed in 96-well plates and incubated for 24 h. The growth medium was then changed to contain 10 nM of 1α-25dihydroxy-Vitamin D3 and 50 μg/ml (final concentration) of purified sheath protein or synthesized peptide. After 96 additional hours of incubation, ALP activity was determined using p-nitrophenylphosphate as a substrate.
# The bioactivities of these synthetic peptides were tested their cytodifferentiation activity of HPDL cells and ST2 cells by determination of increasing ALP inducing activity on cell culture system. When these peptides applied in cell culture system, the concentration of their peptides was employed around 1 ng/ml. In the case of TGF-1, the concentration was 10 ng/ml.
# Normal human periodontal ligament fibroblasts were maintained in an α-minimal essential medium (α-MEM) containing 10% fetal bovine serum, either with or without 10 nM 1α-25dihydroxy-vitamin D3 and 1% antibiotics (100 U/mL of penicillin G and 100 μg/mL of streptomycin sulfate) at 37° C. in a humidified atmosphere of air containing 5% CO2. Another cell line, ST2 cells, was obtained from an osteoblast-like mouse bone marrow stromal cell line. These cells were cultured in the same conditions as those described above.
# The ALP inducing activities of synthetic peptides using the cell culture of HPDL cells and ST2 cells were examined. The HPDL cells were distributed in 96-well plates at a density of approximately 5×10^5 cells per well and incubated for 24 h. The medium was then changed to α-MEM containing 10 nM of 1α-25dihydroxy-vitamin D3 and either synthetic peptides or growth factors dissolved in ultra-pure water. After 96 h of incubation, the cells were washed once with phosphate-buffered saline, and 10 mM ρ-nitrophenylphosphate in 100 mM 2-amino-2-methel-1,3-propanediol-HCl buffer (pH 10.0) containing 5 mM MgCl2 was added. The ALP activity was determined after 10 min incubation at 37° C. and the absorbance at 405 nm was read using a plate reader, after adding 0.2 M NaOH to stop the reaction. […] When the synthetic peptides were applied in the cell culture system, their final concentrations were 25 or 50 μg/mL. A TGF-β1 receptor inhibitor (SB431542, 10 μM) was applied to the HPDL cell culture system to examine their influence relative to the ALP inducing activity of the synthetic peptides.
# [2] = test system: buccal dehiscence type bone defects created along the roots of the canine mandibular premolars; experiment: Cementum regeneration (CR) activity, eight-week histological analysis on buccal dehiscence model of dogs; format: in vivo, beagle dogs; conditions: for thickness of regenerated cementum: eight weeks following application, measured at 3 points (apical, middle, coronal), beagle dogs; for CR (cementum regeneration) activity: histological analysis eight weeks after application, buccal dehiscence model of dogs
# Description: Approximately 2-year-old male beagle dogs (approximate 15 kg) were used to detect the CR activities after the applications of several enamel protein samples. They had intact dentition and a healthy periodontium. The surgical preparation of buccal dehiscence type bone defects was carried out according to the modified method of Hammarström (1997) under general anesthesia induced and maintained by an endotracheal tube with 1.5-2.0% of halothane (Takeda Yakuhin Co. LTD, Osaka, Japan) in 100% oxygen, after premedicated with intramuscular injection of the mixture of Ketamine HCl (9.8 mg/kg: Sankyo Co. LTD, Tokyo, Japan) and Xylazine HCl (0.7 mg/kg: Bayer Co. LTD, Tokyo, Japan).
# Contralateral buccal mucoperiosteal flaps were raised after an intracrevicular incision extending from the first mandibular premolar to the first mandibular molar. After the removing the buccal alveolar bone plate covering the mesial root of the second premolars, the exposed periodontal ligament and cementum of these areas were completely removed by means of a dental bur. At the apical end of the defect, a notch was created to identify the apical extension of the defect, when histological analyses. The distance between the cervical margin and the apical end of the defect was standardized at about 5 mm. The exposed root dentin surfaces were conditioned for 2 min with cotton pellets soaked in a 19% EDTA solution, and then carefully rinsed with sterile saline. Then 50 μg of each enamel protein sample in 100 μl of cold sterile distilled water was applied over the entire buccal surface area of the exposed roots. Finally, the mucoperiosteal flaps were repositioned to their level prior to surgery and sutured. Distilled water was used as a negative control and EMDOGAIN® (BIORA AB, Malmö, Sweden) served as a positive control.
# After 8 weeks the dogs were terminated by anesthetization with sodium pentobarbital. Their heads were fixed by perfusion with 0.1 M sodium cacodylate buffer (pH 7.4) containing 4% paraformaldehyde and 1% glutaraldehyde. Tissue blocks, which included teeth, bone, and tissue were dissected and demineralized in 10% formic acid containing 0.06 M sodium citrate and 0.1 M citric acid. All specimens were dehydrated using a graded series of alcohols and then embedded in paraffin. Serial sections (5 μm thick) were made and stained with hematoxylin/eosin for examination by light microscopy.
# The length and thickness of cementums regenerated after application of fractionated and purified enamel protein samples and EMD were measured on the computer monitor of histological results. The length of the regenerated cementum was straight distance between the apical end of the defect and coronal extention of the new cementum, as well as to the crest of the new alveolar bone. Also, the thickness of cementum was measured at coronal end, apical end and between them.
# CR promoting activity of enamel proteins obtained at each extracted and purified step were examined by eight-week histological analysis of buccal dehiscence type bone defects created along the roots of canine mandible (FIG. 1).
molecule,measurement,setting,value
6 kDa amelogenin: derived from N-terminal side of 20 kDa amelogenin (MPLPPHPGHPGYINFSYEVLTPLKWYQNMIRHPYTSYGYEPMGGW; porcine 6 kDa amelogenin; listed as Sus scrofa),ALP inducing activity of HPDL cells (amelogenins and peptides based on 6 kDa amelogenin),[1],activity like TGF-β1; also recorded: strongest ALP inducing activity of HPDL cells
"C=C1/C(=C\C=C2/CCC[C@]3(C)[C@@H]([C@H](C)CCCC(C)(C)O)CC[C@@H]23)C[C@@H](O)C[C@@H]1O [1α-25dihydroxy-vitamin D3, reference compound]",levels of ALP activity of HPDL cells by addition of 1α-25dihydroxy-vitamin D3,"[1]; 10 nM, with application of ESP synthetic peptides or TGF-β1",enhanced and stabilized
"NC(=O)c1ccc(-c2nc(-c3ccc4c(c3)OCO4)c(-c3ccccn3)[nH]2)cc1 [SB431542, reference compound]",ALP inducing activity of HPDL cells when adding TGF-β1 receptor inhibitor SB431542,"[1]; 10 μM SB431542, 10 nM 1α-25dihydroxy-vitamin D3",significantly inhibited the activity of TGF-β1
"A-1-1: shorter peptide synthesized based on the sequence of A-1 (MPLPPH; 6 aa from 1 to 6 in sequence 9, 14, 33 and 34; listed as Homo sapiens)","concentration at which the peptide promotes the bioactivity (ALP inducing activity of HPDL cells), high concentration",[1]; cell culture system,1 µg/mL
same,ALP inducing activity of HPDL cells (amelogenins and peptides based on 6 kDa amelogenin),[1],promote ALP inducing activity
same,ALP inducing activity of HPDL cells (amelogenins and peptides based on 6 kDa amelogenin),[1]; listed as SEQ ID NO: 6,had ALP inducing activity
"A-1-2: shorter peptide synthesized based on the sequence of A-1 (PGHPGY; 6 aa from 7 to 12 in sequence 9, 14, 33 and 34; listed as Homo sapiens)","concentration at which the peptide promotes the bioactivity (ALP inducing activity of HPDL cells), low concentration",[1]; cell culture system,10 ng/mL
same,ALP inducing activity of HPDL cells (amelogenins and peptides based on 6 kDa amelogenin),[1],promote ALP inducing activity
"A-1: N-terminal side peptide synthesized based on the sequence of 6 kDa amelogenin (MPLPPHPGHPGYINF; 15 aa from 1 to 15 in sequence 14, 33 and 34; listed as Homo sapiens)",ALP inducing activity of HPDL cells (amelogenins and peptides based on 6 kDa amelogenin),[1],showed the strong bioactivity
"C-1: 15-residue peptide, position 132-146 of porcine 17 kDa sheath protein (VEGPMVQQQVAPSEK; 15 aa from 132 to 146 in sequence 10; listed as Sus scrofa)",ALP activity of HPDL cells (porcine sheath proteins and synthetic peptides),[1]; 96 h,not so strong; also recorded: enhanced the ALP activity of the HPDL cells
SDKPPKPELPVDF (13 aa from 144 to 156 in sequence 36; listed as Homo sapiens) [H-2′],ALP inducing activity of HPDL cells (Example 4),"[1]; peptides 50 μg/mL, TGF-β1 1 ng/mL, BMP-2 1 μg/mL, 10 nM 1α-25dihydroxy-vitamin D3, 96 h",showed the same inductive properties
B1,ALP activity of HPDL cells (porcine sheath proteins and synthetic peptides),[1]; 96 h,enhanced
same,ALP activity of HPDL cells (porcine sheath proteins and synthetic peptides),"[1]; 96 h, listed as 17 kDa ESP",weaker than that of TGF-β1
same,thickness of regenerated cementum,[2],31.77±3.78 μm
same,CR (cementum regeneration) activity,[2],"induced a thick acellular cementum; also recorded: induced thick acellular cementum near the apical end of the defect, but the CR was scarce near the coronal end; also recorded: induced a smaller area of cementum regeneration; also recorded: exhibited the CR activity"
same,CR (cementum regeneration) activity,[2]; listed as 17 kDa ESP,stronger cementum regeneration promoting activity
B2,ALP activity of HPDL cells (porcine sheath proteins and synthetic peptides),[1]; 96 h,showed the increase of ALP inducing activity than that of 13 kDa sheath protein
same,ALP activity of HPDL cells (porcine sheath proteins and synthetic peptides),"[1]; 96 h, listed as 15-kDa sheath protein",not
same,thickness of regenerated cementum,[2],8.13±2.06 μm
same,CR (cementum regeneration) activity,[2],scarce CR activity
B3,ALP inducing activity of HPDL cells (amelogenins and peptides based on 6 kDa amelogenin),[1],activity like TGF-β1
